Experimental data: patent US20160159814A1, “GLYCINE TRANSPORTER INHIBITOR” (TAISHO PHARMACEUTICAL CO., LTD., priority 2013, published 2016)
Like-named read-outs stand apart in the source and are kept apart here.

Target: T1, human type 1 glycine transporter (GlyT1) (Homo sapiens, UniProt P48067)
T1 construct: T98G cells (glioma cells) expressing human type 1 glycine transporter (GlyT1) were used; endogenous in cells; host or cells: T98G cells (human glioma cells)
T1 sequence (P48067 1-706): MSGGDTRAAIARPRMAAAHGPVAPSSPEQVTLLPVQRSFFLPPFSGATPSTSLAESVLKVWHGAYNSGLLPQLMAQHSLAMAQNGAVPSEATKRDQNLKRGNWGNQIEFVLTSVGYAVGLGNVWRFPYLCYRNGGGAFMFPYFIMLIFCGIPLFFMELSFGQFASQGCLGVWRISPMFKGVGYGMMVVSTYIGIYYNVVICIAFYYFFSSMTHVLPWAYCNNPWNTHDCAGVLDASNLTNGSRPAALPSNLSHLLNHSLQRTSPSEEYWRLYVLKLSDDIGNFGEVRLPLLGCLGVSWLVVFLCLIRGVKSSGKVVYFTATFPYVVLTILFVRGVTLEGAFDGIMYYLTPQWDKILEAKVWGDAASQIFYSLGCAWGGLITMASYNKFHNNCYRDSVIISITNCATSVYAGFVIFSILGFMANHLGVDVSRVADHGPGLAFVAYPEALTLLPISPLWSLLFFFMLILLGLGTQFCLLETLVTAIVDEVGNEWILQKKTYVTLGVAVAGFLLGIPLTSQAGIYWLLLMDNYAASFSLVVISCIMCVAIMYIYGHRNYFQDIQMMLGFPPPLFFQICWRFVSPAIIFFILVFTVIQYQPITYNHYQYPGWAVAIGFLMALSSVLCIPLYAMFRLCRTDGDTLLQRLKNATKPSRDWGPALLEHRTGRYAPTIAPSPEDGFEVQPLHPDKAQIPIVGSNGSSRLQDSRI
Experiment: Glycine uptake inhibition experiment ([3H] glycine uptake in T98G cells expressing GlyT1)
Format: cell-based
Protocol: Glycine Uptake Inhibition Experiment
A glycine uptake experiment was conducted in accordance with the method published in Neuron, 8, 927-935, 1992. In the experiment, T98G cells (glioma cells) expressing human type 1 glycine transporter (GlyT1) were used. The T98G cells were seeded in a 96-well plate at 2.0×10^4 cells/well and cultured overnight in a CO2 incubator. The test substance was dissolved in a 100% DMSO solution and then dissolved in a 10 mM HEPES buffer solution (pH 7.4) containing 150 mM sodium chloride, 1 mM calcium chloride, 5 mM potassium chloride, 1 mM magnesium chloride, 10 mM glucose and 0.2% bovine serum albumin. After removing the cell culture medium, the test substance was subjected to a 10-min pretreatment. Subsequently, the test substance and [^3H] glycine (final concentration: 250 nM) were added to the cells and reaction was performed at room temperature for 15 minutes. After the end of the reaction, the extracellular fluid was aspirated with a manifold to remove excess labeled glycine present outside the cells, and then the cells were lysed with a 0.5 M aqueous sodium hydroxide solution. The glycine content in the cells was determined by measuring the radioactivity in the cell lysate with a liquid scintillation counter. Glycine uptake in the presence of 10 μM ALX5407 was defined as non-specific uptake, and the value calculated by subtracting the amount of the non-specific uptake from the total uptake in the absence of 10 μM ALX5407 was defined as specific uptake. In addition, glycine uptake inhibitory activity (IC50 value) was calculated from an inhibition curve at the concentrations of each test substance ranging from 10^−9 to 10^−5 M. It should be noted that ALX5407 is an HCl salt of N-[(3R)-3-([1,1′-biphenyl]-4-yloxy)-3-(4-fluorophenyl)propyl]-N-methylglycine.

SMILES | IC50 [nM] | IC50 (glycine uptake inhibition) [nM] | further results
C[C@H](O)c1cccc2c1C(F)(F)C(=O)N2Cc1cccc(F)c1 [Compound 56, 3,3-difluoro-1-(3-fluorobenzyl)-4-[(1S)-1-hydroxyethyl)-1,3-dihydro-2H-indol-2-one] | – | 9.1 | –
O=C1N(Cc2cnccc2Cl)c2cccc(C(O)C(F)F)c2C1(F)F (single isomer, unassigned) [Compound 260, 1-[(4-chloropyridin-3-yl)mettiyl]-4-(2,2-difluoro-1-hydroxyethyl)-3,3-difluoro-1,3-dihydro-2H-indol-2-one] | – | – | IC50 (table section whose head prints (μm)): 1500 nM
C[C@H](O)c1cccc2c1C(F)(F)C(=O)N2Cc1cccc(-n2nccn2)n1 [Compound 44, 3,3-difluoro-4-[(1S)-1-hydroxyethyl]-1-{[6-(2H-1,2,3-triazol-2-yl)pyridin-2-yl]methyl}-1,3-dihydro-2H-indol-2-one] | – | 68 | –
C[C@H](O)c1cccc2c1C(F)(F)C(=O)N2Cc1ccc(Cl)c(C#N)n1 [Compound 202, 3-chloro-6-({3,3-difluoro-4-[(1S)-1-hydroxyethyl]-2-oxo-2,3-dihydro-1H-indol-1-yl)methyl)pyridine-2-carbonitrile] | 6.9 | – | –
C[C@H](O)c1cccc2c1C(F)(F)C(=O)N2Cc1ccc(Br)nc1 [Compound 190, 1-[(6-bromopyridin-3-yl)methyl]-3,3-difluoro-4-[(1S)-1-hydroxyethyl]-1,3-dehydro-2H-indol-2-one] | 51 | – | –
COc1ccncc1CN1C(=O)C(F)(F)c2c([C@H](C)O)cccc21 [Compound 209, 3,3-difluoro-4-[(1S)-1-hydroxyethyl]-1-[(4-methoxypyridin-3-yl)methyl]-1,3-dihydro-2H-indol-2-one] | 2800 | – | –
C[C@H](O)c1cccc2c1C(F)(F)C(=O)N2Cc1cncc(-n2nccn2)c1 [Compound 84, 3,3-difluoro-4-[(1S)-1-hydroxyethyl]-1-{[5-(2H-1,2,3-triazol-2-yl)pyridin-3-yl]methyl}-1,3-dihydro-2H-indol-2-one] | – | 35 | –
C[C@H](O)c1cccc2c1C(F)(F)C(=O)N2Cc1ccc2nonc2c1 [Compound 76, 1-(2,1,3-benzoxadiazol-5-ylmethyl)-3,3-difluoro-4-[(1S)-1-hydroxyethyl]-1,3-dihydro-2H-indol-2-one] | – | 8.7 | –
CC(O)c1cccc2c1C(F)(F)C(=O)N2Cc1ccnc(F)c1 (stereo not shown) [Compound 29, 3,3-difluoro-1-[(2-fluoropyridin-4-yl)methyl]-4-(1-hydroxyethyl)-1,3-dihydro-2H-indol-2-one] | – | 77 | –
C[C@H](O)c1cccc2c1C(F)(F)C(=O)N2Cc1ccnc(-n2cncn2)c1 [Compound 69, 3,3-difluoro-4-[(1S)-1-hydroxyethyl]-1-{[2-(1H-1,2,4-triazol-1-yl)pyridin-4-yl]methyl}-1,3-dihydro-2H-indol-2-one] | – | 45 | –
CC(c1cccc(Cl)n1)N1C(=O)C(F)(F)c2c([C@H](C)O)cccc21 (stereo partly drawn) [Compound 51, 1-[1-(6-chloropyridin-2-yl)ethyl]-3,3-difluoro-4-[(1S)-1-hydroxyethyl]-1,3-dihydro-2H-indol-2-one] | – | 260 | –
C[C@H](O)c1cccc2c1C(F)(F)C(=O)N2Cc1ccc(C2CC2)nc1 [Compound 198, 1-[(6-cyclopropylpyridin-3-yl)methyl]-3,3-difluoro-4-[(1S)-1-hydroxyethyl]-1,3-dihydro-2H-indol-2-one] | 160 | – | –
C[C@H](O)c1cccc2c1C(F)(F)C(=O)N2Cc1ccc(F)c(C#N)n1 [Compound 236, 6-({3,3-difluoro-4-[(1S)-1-hydroxyethyl]-2-oxo-2,3-dihydro-1H-indol-1-yl}methyl)-3-fluoropyiidine-2-carbonitrile] | 4 | – | –
C[C@H](O)c1cccc2c1C(F)(F)C(=O)N2Cc1cccc(C(F)F)n1 [Compound 82, 1-{[6-(difluoromethyl)pyridin-2-yl]methyl}-3,3-difluoro-4-[(1S)-1-hydroxyethyl]-1,3-dihydro-2H-indol-2-one] | – | 44 | –
O=C1N(Cc2cc(C(F)(F)F)ccn2)c2cccc(C(O)C(F)F)c2C1(F)F (single isomer, unassigned) [Compound 159, 4-(2,2-difluoro-1-hydroxyethyl)-3,3-difluoro-1-{[4-(trifluoromethyl)pyridin-2-yl]methyl}-1,3-dihydro-2H-indol-2-one] | 53 | – | –
CC(O)c1cccc2c1C(F)(F)C(=O)N2Cc1cncc(Cl)c1 (stereo not shown) [Compound 3, 1-[(5-chloropyridin-3-yl)methyl]-3,3-difluoro-4-(1-hydroxyethyl)-1,3-dihydro-2H-indol-2-one] | – | 32 | –

Continued, in another order:

IC50 [nM] | IC50 (glycine uptake inhibition) [nM] | SMILES | further results
180 | – | C[C@H](O)c1cccc2c1C(F)(F)C(=O)N2Cc1ncc(F)cc1C#N [Compound 233, 2-({3,3-difluoro-4-[(1S)-1-hydroxyethyl)-2-oxo-2,3-dihydro-1H-indol-1-yl}methyl)-5-fluoropyridine-3-carbonitrile] | –
180 | – | N#Cc1cc(CN2C(=O)C(F)(F)c3c(C(O)C(F)F)cccc32)c(F)cn1 (single isomer, unassigned) [Compound 219, 4-{[4-(2,2-difluoro-1-hydroxyethyl)-3,3-difluoro-2-oxo-2,3-dihydro-1H-indol-1-yl]methyl)-5-fluoropyridine-2-carbonitrile] | –
– | 130 | Cc1nc(CN2C(=O)C(F)(F)c3c([C@H](C)O)cccc32)oc1C [Compound 91, 1-[(4,5-dimethyl-1,3-oxazol-2-yl)methyl]-3,3-difluoro-4-[(1S)-1-hydroxyethyl]-1,3-dihydro-2H-indol-2-one] | –
– | 260 | O=C1N(Cc2cc(F)ccn2)c2cccc(C(O)C(F)F)c2C1(F)F (single isomer, unassigned) [Compound 154, 4-(2,2-difluoro-1-hydroxyethyl)-3,3-difluoro-1-[(4-fluoropyridin-2-yl)methyl]-1,3-dihydro-2H-indol-2-one] | –
– | 6.5 | CC(O)c1cccc2c1C(F)(F)C(=O)N2Cc1cccc(Cl)n1 (single isomer, unassigned) [Compound 4] | –
110 | – | C[C@H](O)c1cccc2c1C(F)(F)C(=O)N2Cc1cnc(Cl)cn1 [Compound 199, 1-[(5-chloropyrazin-2-yl)methyl]-3,3-difluoro-4-[(1S)-1-hydroxyethyl]-1,3-dihydro-2H-indol-2-one] | –
– | 66 | O=C1N(Cc2cncc(-n3nccn3)c2)c2cccc([C@@H](O)C(F)(F)F)c2C1(F)F [Compound 134, 3,3-difluoro-1-{[5-(2H-1,2,3-triazol-2-yl)pyridin-3-yl]methyl}-4-[(1R)-2,2,2-trifluoro-1-hydroxyethyl]-1,3-dihydro-2H-indol-2-one] | –
– | 98 | CC(O)c1cccc2c1C(F)(F)C(=O)N2Cc1ccnc(C#N)c1 (stereo not shown) [Compound 28] | –
– | 310 | O=C1N(Cc2ccnc(F)c2)c2cccc(C(O)C(F)F)c2C1(F)F (stereo not shown) [Compound 150, 4-(2,2-difluoro-1-hydroxyethyl)-3,3-difluoro-1-[(2-fluoropyridin-4-yl)methyl]-1,3-dihydro-2H-indol-2-one] | –
140 | – | COc1cc(CN2C(=O)C(F)(F)c3c(C(O)C(F)F)cccc32)cnc1F (single isomer, unassigned) [Compound 273, 4-(2,2-difluoro-1-hydroxyethyl)-3,3-difluoro-1-[(6-fluoro-5-methoxypyridin-3-yl)methyl]-1,3-dihydro-2H-indol-2-one] | –
– | 44 | C[C@H](O)c1cccc2c1C(F)(F)C(=O)N2Cc1ccc(Cl)cn1 [Compound 103, 1-[(5-chloropyridin-2-yl)methyl]-3,3-difluoro-4-[(1S)-1-hydroxyethyl]-1,3-dihydro-2H-indol-2-one] | –
23 | – | C[C@H](O)c1cccc2c1C(F)(F)C(=O)N2Cc1cnc(F)c(C#N)c1 [Compound 235, 5-({3,3-difluoro-4-[(1S)-1-hydroxyethyl]-2-oxo-2,3-dihydro-1H-indol-1-yl}methyl)-2-fluoropyridine-3-carbonitrile] | –
